# Test results published in patent US20210139467A1 (GLAXOSMITHKLINE INTELLECTUAL PROPERTY DEVELOPMENT LIMITED, priority 2017, published 2021).
# Target: IDO1 (Homo sapiens, UniProt P14902)
# Experiment: IDO1 PBMC RapidFire MS Assay
# Format: cell-based
# Parameters: stimulated with human interferon-γ (IFN-γ); host or cells: human PBMC stimulated with IFN-gamma and LPS
# Conditions: human PBMC stimulated with IFN-γ and LPS; kynurenine detected by mass spectrometry; 2 days; read-out: IDO1 PBMC pIC50 (converted)
# Protocol: IDO1 PBMC RapidFire MS Assay
# Compounds of the present invention were tested via high-throughput cellular assays utilizing detection of kynurenine via mass spectrometry and cytotoxicity as end-points. For the mass spectrometry and cytotoxicity assays, human peripheral blood mononuclear cells (PBMC) (PB003F; AllCells®, Alameda, Calif.) were stimulated with human interferon-γ (IFN-γ) (Sigma-Aldrich Corporation, St. Louis, Mo.) and lipopolysaccharide from Salmonella minnesota (LPS) (Invivogen, San Diego, Calif.) to induce the expression of indoleamine 2, 3-dioxygenase (IDO1). Compounds with IDO1 inhibitory properties decreased the amount of kynurenine produced by the cells via the tryptophan catabolic pathway. Cellular toxicity due to the effect of compound treatment was measured using CellTiter-Glo® reagent (CTG) (Promega Corporation, Madison, Wis.), which is based on luminescent detection of ATP, an indicator of metabolically active cells.
# In preparation for the assays, test compounds were serially diluted 3-fold in DMSO from a typical top concentration of 1 mM or 5 mM and plated at 0.5 μL in 384-well, polystyrene, clear bottom, tissue culture treated plates with lids (Greiner Bio-One, Kremsmünster, Austria) to generate 11-point dose response curves. Low control wells (0% kynurenine or 100% cytotoxicity) contained either 0.5 μL of DMSO in the presence of unstimulated (−IFN-γ/-LPS) PBMCs for the mass spectrometry assay or 0.5 μL of DMSO in the absence of cells for the cytotoxicity assay, and high control wells (100% kynurenine or 0% cytotoxicity) contained 0.5 μL of DMSO in the presence of stimulated (+IFN-γ/+LPS) PBMCs for both the mass spectrometry and cytotoxicity assays.
# Frozen stocks of PBMCs were washed and recovered in RPMI 1640 medium (Thermo Fisher Scientific, Inc., Waltham, Mass.) supplemented with 10% v/v heat-inactivated fetal bovine serum (FBS) (Thermo Fisher Scientific, Inc., Waltham, Mass.), and 1× penicillin-streptomycin antibiotic solution (Thermo Fisher Scientific, Inc., Waltham, Mass.). The cells were diluted to 1,000,000 cells/mL in the supplemented RPMI 1640 medium. 50 μL of either the cell suspension, for the mass spectrometry assay, or medium alone, for the cytotoxicity assay, were added to the low control wells, on the previously prepared 384-well compound plates, resulting in 50,000 cells/well or 0 cells/well respectively. IFN-γ and LPS were added to the remaining cell suspension at final concentrations of 100 ng/ml and 50 ng/ml respectively, and 50 μL of the stimulated cells were added to all remaining wells on the 384-well compound plates. The plates, with lids, were then placed in a 37° C., 5% CO2 humidified incubator for 2 days.
# Following incubation, the 384-well plates were removed from the incubator and allowed to equilibrate to room temperature for 30 minutes. For the cytotoxicity assay, CellTiter-Glo® was prepared according to the manufacturer's instructions, and 40 μL were added to each plate well. After a twenty minute incubation at room temperature, luminescence was read on an EnVision® Multilabel Reader (PerkinElmer Inc., Waltham, Mass.). For the mass spectrometry assay, 10 μL of supernatant from each well of the compound-treated plates were added to 40 μL of acetonitrile, containing 10 μM of an internal standard for normalization, in 384-well, polypropylene, V-bottom plates (Greiner Bio-One, Kremsmünster, Austria) to extract the organic analytes. Following centrifugation at 2000 rpm for 10 minutes, 10 μL from each well of the acetonitrile extraction plates were added to 90 μL of sterile, distilled H2O in 384-well, polypropylene, V-bottom plates for analysis of kynurenine and the internal standard on the RapidFire 300 (Agilent Technologies, Santa Clara, Calif.) and 4000 QTRAP MS (SCIEX, Framingham, Mass.). MS data were integrated using Agilent Technologies' RapidFire Integrator software, and data were normalized for analysis as a ratio of kynurenine to the internal standard. […]
# Chain of IDO1 (P14902 whole entry): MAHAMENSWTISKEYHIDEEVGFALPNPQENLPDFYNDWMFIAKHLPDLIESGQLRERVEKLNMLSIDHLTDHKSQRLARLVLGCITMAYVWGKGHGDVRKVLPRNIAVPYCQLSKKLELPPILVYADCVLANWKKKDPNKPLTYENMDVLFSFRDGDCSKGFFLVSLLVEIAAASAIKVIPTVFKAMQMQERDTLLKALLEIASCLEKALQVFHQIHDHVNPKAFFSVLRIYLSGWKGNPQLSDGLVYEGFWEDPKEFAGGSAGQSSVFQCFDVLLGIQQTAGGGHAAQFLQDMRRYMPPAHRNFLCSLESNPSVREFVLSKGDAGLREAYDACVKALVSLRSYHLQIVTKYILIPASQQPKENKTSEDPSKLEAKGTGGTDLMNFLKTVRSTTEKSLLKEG
row,IC50,Compound
1,3.16 nM,"CC(C)CN(c1ccc(C(C)(C)C(=O)O)cc1Nc1ccc(Cl)cn1)C1CCOCC1 [Example 1, 2-(3-((5-chloropyridin-2-yl)amino)-4-(isobutyl(tetrahydro-2H-pyran-4-yl)amino)phenyl)-2-methylpropanoic acid]"
2,1.58 nM,"CC(C)CN(c1ccc(C(C)(C)C(=O)NS(C)(=O)=O)cc1Nc1ccc(Cl)cn1)C1CCOCC1 [Example 2, 2-(3-((5-chloropyridin-2-yl)amino)-4-(isobutyl(tetrahydro-2H-pyran-4-yl)amino)phenyl)-2-methyl-N-(methylsulfonyl)propanamide]"
3,20 nM,"CC(C)CN(c1ccc(C(C)(C)C(=O)NS(=O)(=O)C(F)(F)F)cc1Nc1ccc(Cl)cn1)C1CCOCC1 [Example 3, 2-(3-((5-chloropyridin-2-yl)amino)-4-(isobutyl(tetrahydro-2H-pyran-4-yl)amino)phenyl)-2-methyl-N-((trifluoromethyl)sulfonyl)propanamide]"
4,0.794 nM,"CC(C)CN(c1ccc(C2(C(=O)NS(C)(=O)=O)CC2)cc1Nc1ccc(Cl)cn1)C1CCOCC1 [Example 4, 1-(3-((5-chloropyridin-2-yl)amino)-4-(isobutyl(tetrahydro-2H-pyran-4-yl)amino)phenyl)-N-(methylsulfonyl)cyclopropane-1-carboxamide]"
5,6.31 nM,"CC(C)CN(c1ccc(C2(C(=O)O)CC2)cc1Nc1ccc(Cl)cn1)C1CCOCC1 [Example 5, 1-(3-((5-chloropyridin-2-yl)amino)-4-(isobutyl(tetrahydro-2H-pyran-4-yl)amino)phenyl)cyclopropane-1-carboxylic acid]"
6,6.31 nM,"CC(C)CN(c1ncc(C(C)(C)C(=O)O)cc1Nc1ccc(Cl)cn1)C1CCOCC1 [Example 6, 2-(5-((5-chloropyridin-2-yl)amino)-6-(isobutyl(tetrahydro-2H-pyran-4-yl)amino)pyridin-3-yl)-2-methylpropanoic acid]"
7,5.01 nM,"CC(C)CN(c1ncc(C(C)(C)C(=O)NS(C)(=O)=O)cc1Nc1ccc(Cl)cn1)C1CCOCC1 [Example 7, 2-(5-((5-chloropyridin-2-yl)amino)-6-(isobutyl(tetrahydro-2H-pyran-4-yl)amino)pyridin-3-yl)-2-methyl-N-(methylsulfonyl)propanamide]"
8,20 nM,"CC(C)CN(c1ncc(C(C)(C)C(=O)NS(=O)(=O)C(F)(F)F)cc1Nc1ccc(Cl)cn1)C1CCOCC1 [Example 8, 2-(5-((5-chloropyridin-2-yl)amino)-6-(isobutyl(tetrahydro-2H-pyran-4-yl)amino)pyridin-3-yl)-2-methyl-N-((trifluoromethyl)sulfonyl)propanamide]"
9,7.94 nM,"CC(C)CN(c1ncc(C2(C(=O)O)CC2)cc1Nc1ccc(Cl)cn1)C1CCOCC1 [Example 9, 1-(5-((5-chloropyridin-2-yl)amino)-6-(isobutyl(tetrahydro-2H-pyran-4-yl)amino)pyridin-3-yl)cyclopropane-1-carboxylic acid]"
10,5.01 nM,"CC(C)CN(c1ncc(C2(C(=O)NS(C)(=O)=O)CC2)cc1Nc1ccc(Cl)cn1)C1CCOCC1 [Example 10, 1-(5-((5-chloropyridin-2-yl)amino)-6-(isobutyl(tetrahydro-2H-pyran-4-yl)amino)pyridin-3-yl)-N-(methylsulfonyl)cyclopropane-1-carboxamide]"
11,31.6 nM,"CC(C)CN(c1ncc(C2(C(=O)NS(=O)(=O)C(F)(F)F)CC2)cc1Nc1ccc(Cl)cn1)C1CCOCC1 [Example 11, 1-(5-((5-chloropyridin-2-yl)amino)-6-(isobutyl(tetrahydro-2H-pyran-4-yl)amino)pyridin-3-yl)-N-((trifluoromethyl)sulfonyl)cyclopropane-1-carboxamide]"
12,25.1 nM,"CC(C)CN(CC(C)C)c1ccc(C(C)(C)C(=O)O)cc1Nc1ccc(Cl)cn1 [Example 12, 2-(3-((5-chloropyridin-2-yl)amino)-4-(diisobutylamino)phenyl)-2-methylpropanoic acid]"
13,12.6 nM,"CC(C)CN(CC(C)C)c1ccc(C(C)(C)C(=O)O)cc1Nc1nc(C(F)(F)F)ns1 [Example 13, 2-(4-(diisobutylamino)-3-((3-(trifluoromethyl)-1,2,4-thiadiazol-5-yl)amino)phenyl)-2-methylpropanoic acid]"
14,15.8 nM,"CC(C)CN(c1ccc(C2(C(=O)O)CC2)cc1Nc1nnc(C2CC2)s1)C1CCOCC1 [Example 14, 1-(3-((5-cyclopropyl-1,3,4-thiadiazol-2-yl)amino)-4-(isobutyl(tetrahydro-2H-pyran-4-yl)amino)phenyl)cyclopropane-1-carboxylic acid]"
15,6.31 nM,"CC(C)CN(c1ccc(C(C)(C)C(=O)O)nc1Nc1ccc(Cl)cn1)C1CCOCC1 [Example 17, 2-(6-((5-chloropyridin-2-yl)amino)-5-(isobutyl(tetrahydro-2H-pyran-4-yl)amino)pyridin-2-yl)-2-methylpropanoic acid]"
16,3.16 nM,"CC(C)CN(c1ccc(C(C)(C)C(=O)NS(C)(=O)=O)nc1Nc1ccc(Cl)cn1)C1CCOCC1 [Example 18, 2-(6-((5-chloropyridin-2-yl)amino)-5-(isobutyl(tetrahydro-2H-pyran-4-yl)amino)pyridin-2-yl)-2-methyl-N-(methylsulfonyl)propanamide]"
17,5.01 nM,"CC(C)CN(c1ccc(C2(C(=O)NS(C)(=O)=O)CC2)cc1Nc1nnc(C2CC2)s1)C1CCOCC1 [Example 19, 1-(3-((5-cyclopropyl-1,3,4-thiadiazol-2-yl)amino)-4-(isobutyl(tetrahydro-2H-pyran-4-yl)amino)phenyl)-N-(methylsulfonyl)cyclopropane-1-carboxamide]"
18,12.6 nM,"COc1ncc(Nc2cc(C3(C(=O)NS(C)(=O)=O)CC3)ccc2N(CC(C)C)C2CCOCC2)cn1 [Example 20, 1-(4-(isobutyl(tetrahydro-2H-pyran-4-yl)amino)-3-((2-methoxypyrimidin-5-yl)amino)phenyl)-N-(methylsulfonyl)cyclopropane-1-carboxamide]"
19,39.8 nM,"COCc1ccc(Nc2cc(C3(C(=O)NS(C)(=O)=O)CC3)ccc2N(CC(C)C)C2CCOCC2)cn1 [Example 21, 1-(4-(isobutyl(tetrahydro-2H-pyran-4-yl)amino)-3-((6-(methoxymethyl)pyridin-3-yl)amino)phenyl)-N-(methylsulfonyl)cyclopropane-1-carboxamide]"
20,> 10000 nM,CC(C)CN(c1ccc(C2(C(=O)NS(C)(=O)=O)CC2)cc1Nc1cnc(C(N)=O)nc1)C1CCOCC1 [Example 22]
21,50.1 nM,CC(C)CN(c1ccc(C2(C(=O)NS(C)(=O)=O)CC2)cc1Nc1cnc(C#N)nc1)C1CCOCC1 [Example 23]
22,50.1 nM,CC(C)CN(c1cnc(C2(C(=O)O)CC2)cc1Nc1ccc(Cl)cn1)C1CCOCC1 [Example 25]
